According to patent US7615361B2, “Toxicity screening methods” (Ceetox, Inc., priority 2006, dated 2009):
Like-named read-outs stand apart in the source and are kept apart here.

Tests used:
[1] = test system: P-glycoprotein (PgP); experiment: P-glycoprotein (PgP) binding: MTT with and without cyclosporin A; type: cell-based, rat; conditions: for % Difference: 1-20% low, 20-50% moderate, 50-100% high PgP interaction
Method: Several antiviral drugs are substrates for P-glycoprotein transporter (PgP).
P-glycoprotein (PgP) transport proteins are expressed in the bile canalicular membrane of normal liver. However, in neoplastic cells it is not uncommon to have expression of this transporter system in the plasma membrane. […] The existence of these transporters was evaluated with the Calcein-AM assay and with known substrates of PgP.

[2] = test system: H4IIE cells; experiment: Membrane lipid peroxidation (8-isoprostane ELISA); type: cell-based, rat
Method: (§1) One test compound (Compound A) was received as dry powder and evaluated for potential cytotoxicity in a battery of in vitro assays. The compound was tested using both rat cardiomyocytes (CM) from rat neonates and a rat hepatoma (H4IIE) cell line. […] Camptothecin and rotenone were included as positive control compounds. The cell supernatant or the cells themselves were harvested for biochemical analysis. General cytotoxicity was evaluated by monitoring membrane integrity, mitochondrial function, cell proliferation, oxidative stress, and apoptosis. In addition, interaction with P-glycoprotein (PgP) on H4IIE cells and solubility of the test compound were also assessed. The means of each exposure group (n=3-7) were calculated for each assay performed. Intra assay variation well-to-well was typically less than 10% with plate to plate variation typically less than 20%.
(§2) Experimental Protocol: The test compound was provided and stored at 4° C. until needed. Dosing solutions were prepared in complete culture medium. The rat hepatoma (H4IIE) cell line was used as the test system.

[3] = Cell number (propidium iodide); type: cell-based, rat; conditions: rat
Method: One test compound (Compound A) was received as dry powder and evaluated for potential cytotoxicity in a battery of in vitro assays. The compound was tested using both rat cardiomyocytes (CM) from rat neonates and a rat hepatoma (H4IIE) cell line. […] The cell supernatant or the cells themselves were harvested for biochemical analysis. General cytotoxicity was evaluated by monitoring membrane integrity, mitochondrial function, cell proliferation, oxidative stress, and apoptosis. In addition, interaction with P-glycoprotein (PgP) on H4IIE cells and solubility of the test compound were also assessed. The means of each exposure group (n=3-7) were calculated for each assay performed.
as §2
Cell Proliferation: Cell proliferation in each well was measured with propidium iodide (PI). This specific nucleic acid binding dye fluoresces when intercalated within the nucleic acids. The 15 nm shift enhances PI fluorescence approximately 20 times while the excitation maxima are shifted 30-40 nm. During method development experiments, it was determined that Triton-X-100 was the best solution to permeabilize the H4IIE cells thereby allowing the PI access to intracellular RNA and DNA. Fluorescence was measured using a Packard Fusion plate reader or equivalent reader at 540 nm excitation and 610 nm emission.
Cell Proliferation: After incubation, the test compound was removed and Triton X-100 solution containing propidium iodide is added. The plate was incubated and read on a fluorescent plate reader. Data was collected as relative fluorescent units (RFU). The blank was subtracted from the final well RFU. It represents the average of the first and last columns which contain no cells on that particular plate. The controls are untreated cells allowed to grow on the same plate. The compounds are represented by several separate RFU data points for each of the tested concentrations. The percent change relative to controls was calculated by dividing the average RFU by the control cell RFU and multiplying by 100.

[4] = test system: H4IIE cells; experiment: Predicted Ctox from Tox-Panel; type: cell-based, rat; conditions: 24 HR, estimated sustained plasma concentration where toxicity would be expected in vivo
Method: Once all data for a given cluster of assays are received, the data are analyzed to obtain a detailed profile of the compound's toxicity. For example, most conveniently, the data are collated over a dose response range on a single graph. In such an embodiment, the measurement evaluated for each parameter (i.e., each indicator of cell health) at any given concentration is plotted as a percentage of a control measurement obtained in the absence of the compound. However, it should be noted that the data need not be plotted on a single graph, so long as all the parameters are analyzed collectively to yield detailed information of the effects of the concentration of the compound on the different parameters to yield an overall toxicity profile. As set forth below, this overall toxicity profile will facilitate a determination of a plasma concentration Ctox that is predicted to be toxic in vivo. Ctox represents an estimate of the sustained plasma concentration in vivo that would result in toxicity, such as hepatotoxicity or hematopoietic toxicity.
Studies such as these indicate that a preferred concentration for setting Ctox is the highest concentration at which there is no observed effect on any of the indicators being measured in the cluster analysis, especially a 24-hour cluster analysis. […] It will be apparent that 24 hour assays are more time-effective, and consequently, the 24 hour NOEL/Ctox represents a preferred data point to select as Ctox in a CATS assay. It will also be apparent that, with further time studies, it may be possible to select an equally suitable Ctox at other CATS assay time points (e.g., between 24 and 72 hours, or less than 24 hours).
In certain embodiments, the predicting comprises performing concentration response analyses of measurements from at least three separate assays that are employed in the cluster analysis. For example, in the cell health cluster, such predicting will involve monitoring the concentration response effect of the compound on a first health indicator which monitors cellular replication, a second cell health indicator which monitors mitochondrial function, and a third cell health indicator which monitors membrane integrity. Of course, it is understood that fourth, fifth, sixth or more cell health indicators also may be employed. From these concentration response analyses, the highest concentration of the chemical compound at which a measurable toxic effect of the chemical compound is not observable, i.e. NOEL, is determined and the Ctox is identified as the concentration that correlates to the NOEL. In choosing the concentrations of the compound for analysis, one of skill in the art should devise a dose response regimen which is selected to provide an indication of cell health at concentrations of at least two concentration values higher than the Ctox concentration.
The Ctox (H4IIE) value was developed using 24 hr in vitro toxicity data and was validated by retrospectively evaluating compounds across different classes of drugs in 14-day rat studies in which compounds were administered on a daily basis and pharmacokinetic data was available. […] Thus, Ctox values are only determined for the 24 hr in vitro results. The 6 hr toxicity analyses are typically not performed but are beneficial for interpretation of results when compound toxicity is high (e.g., Ctox≦20 μM).

[5] = test system: rat cardiomyocytes; experiment: Membrane lipid peroxidation (8-isoprostane ELISA); type: cell-based
Method: as §1

[6] = H4IIE 24 HR, MTT, 50 μM, with cyclosporin A
[7] = H4IIE 24 HR, MTT, 50 μM, without CSA
[8] = H4IIE rat hepatoma cells, H4IIE, 24 HR exposure, read-out: Cell Number TC50

SMILES	% Control (Compound + CSA) [1, 6] [%]	% Control (Compound) [1, 7] [%]	Membrane Lipid Peroxidation ([2]; rat, 24 h)	CC50 at 24 h ([3]; Cell Number TC50) [µM]	Predicted Ctox [4] [µM]	% Difference ([1]; H4IIE 24 HR) [%]	Membrane Lipid Peroxidation ([5]; rat, 24 h)	further results
Nc1nc(NC2CC2)c2ncn([C@H]3C=C[C@@H](CO)C3)c2n1 [ABACAVIR, abacavir]	104.8	97.6	0	> 300	65	–	–	–
CC[C@@]1(O)C(=O)OCc2c1cc1n(c2=O)Cc2cc3ccccc3nc2-1 [CAMPTOTHECIN, Camptothecin]	26.0	23.6	–	–	0.1	–	–	Membrane Lipid Peroxidation ([2]; H4IIE, 24 HR): 1 (1 = Modest increase with maximum values ≦15 pg/mL); Membrane Lipid Peroxidation ([5]; CM, 24 HR): 0; CC50 at 24 h [3, 8]: 4 µM
Cc1cccc(C)c1OCC(=O)N[C@@H](Cc1ccccc1)[C@@H](O)C[C@H](Cc1ccccc1)NC(=O)[C@H](C(C)C)N1CCCNC1=O [LOPINAVIR, lopinavir]	82.1	98.0	0	> 300	60	16.2	0	–
COc1cccc2c1C(=O)c1c(O)c3c(c(O)c1C2=O)C[C@@](O)(C(C)=O)C[C@@H]3O[C@H]1C[C@H](N)[C@H](O)[C@H](C)O1 [DAUNORUBICIN, daunorubicin]	–	–	0	–	3	–	0	% Control (Compound + CSA) [1]: 5.5%; % Control (Compound) [1]: 9.3%; CC50 at 24 h [3]: 8 µM
CC(C)Nc1cccnc1N1CCN(C(=O)c2cc3cc(NS(C)(=O)=O)ccc3[nH]2)CC1 [DELAVIRDINE, delavirdine]	62.3	89.8	–	> 300	68	30.7	0	–
O=C1Nc2ccc(Cl)cc2[C@@](C#CC2CC2)(C(F)(F)F)O1 [EFAVIRENZ, efavirenz]	70.1	89.0	0	169	58	21.3	–	–
C=C(C)[C@H]1Cc2c(ccc3c2O[C@@H]2COc4cc(OC)c(OC)cc4[C@@H]2C3=O)O1 [ROTENONE, Rotenone]	0.0	0.0	–	–	0.03	–	–	Membrane Lipid Peroxidation ([2]; H4IIE, 24 HR): 2 (2 = Concentration related increase with maximum values ≧15 pg/mL); Membrane Lipid Peroxidation ([5]; CM, 24 HR): 3 (3 = Concentration related increase with a maximum value ≧30 pg/mL); CC50 at 24 h ([3]; H4IIE, 24 HR exposure, read-out: Cell Number TC50): 0.04 µM
COc1cccc2c1C(=O)c1c(O)c3c(c(O)c1C2=O)C[C@@](O)(C(=O)CO)C[C@@H]3O[C@H]1C[C@H](N)[C@H](O)[C@H](C)O1 [ADRIAMYCIN, Adriamycin]	0.0	8.0	0	18	1	76.9	0	% Control (Compound + CSA) ([1]; H4IIE 24 HR, MTT, 50 μM, with cyclosporin A, listed as DOXORUBICIN): 13.7%; % Control (Compound) ([1]; H4IIE 24 HR, MTT, 50 μM, without CSA, listed as DOXORUBICIN): 59.3%; Membrane Lipid Peroxidation ([5]; rat, 1 h): 0; Membrane Lipid Peroxidation ([5]; rat, 3 h): 0; Membrane Lipid Peroxidation ([5]; rat, 6 h): 0; Predicted Ctox ([4]; listed as DOXORUBICIN): 7 µM
COc1cccc2c1C(=O)c1c(O)c3c(c(O)c1C2=O)C[C@@](O)(C(=O)CO)C[C@@H]3O[C@H]1C[C@H](N)[C@@H](O)[C@H](C)O1 [EPIRUBICIN, epirubicin]	11.8	59.7	0	31	8	80.3	0	–
CC(=O)[C@]1(O)Cc2c(O)c3c(c(O)c2[C@@H](O[C@H]2C[C@H](N)[C@H](O)[C@H](C)O2)C1)C(=O)c1ccccc1C3=O [IDARUBICIN, idarubicin]	0.0	0.8	0	4	1	–	0	–
COc1cccc2c1C(=O)c1c(O)c3c(c(O)c1C2=O)C[C@@](O)(C(=O)CO)C[C@@H]3O[C@H]1C[C@H](N)[C@H](O[C@@H]2CCCCO2)[C@H](C)O1 [PIRARUBICIN, pirarubicin]	33.6	51.9	–	–	5	35.2	–	Membrane Lipid Peroxidation ([2]; H4IIE, 24 HR): 0; Membrane Lipid Peroxidation ([5]; CM, 24 HR): 0; CC50 at 24 h [3, 8]: 8 µM
